Measured values from ChEMBL document CHEMBL1255171.
The source made the active and inactive calls. The rule behind the calls is not given here. Where a SMILES comes first, the peptide text is derived from it. Bridges are numbered along the chain shown (N, C = ends).

Legend:
[1] = target: Secretin receptor (Homo sapiens) (UniProt P47872); assay: Agonist activity at secretin receptor expressed in CHO cells assessed as increase of cAMP level at 1 uM; assay type: functional, cell-based
[2] = target: Secretin receptor (Homo sapiens) (UniProt P47872); assay: Displacement of [125I]-secretin-27 from secretin receptor expressed in CHO cells at 1 uM by gamma-spectrometer analysis; assay type: cell-based

Sequence of Secretin receptor (Homo sapiens) (P47872 whole entry): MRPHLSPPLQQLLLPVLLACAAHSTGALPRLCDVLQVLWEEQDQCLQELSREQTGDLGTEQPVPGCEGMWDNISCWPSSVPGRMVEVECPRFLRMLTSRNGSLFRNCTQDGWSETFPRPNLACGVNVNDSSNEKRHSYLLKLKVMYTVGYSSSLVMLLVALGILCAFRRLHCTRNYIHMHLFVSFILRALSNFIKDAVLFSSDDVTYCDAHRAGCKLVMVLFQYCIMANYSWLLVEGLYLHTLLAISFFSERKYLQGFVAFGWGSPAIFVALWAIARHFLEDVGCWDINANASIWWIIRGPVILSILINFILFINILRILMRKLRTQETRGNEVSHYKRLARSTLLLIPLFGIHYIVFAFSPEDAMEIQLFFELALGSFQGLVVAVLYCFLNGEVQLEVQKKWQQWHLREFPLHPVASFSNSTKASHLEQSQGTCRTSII

Row | Activity [1] | Activity [2] | SMILES
1 | Active | Active | CC(C)C[C@H](NC(=O)CNC(=O)[C@H](CCC(N)=O)NC(=O)[C@H](CC(C)C)NC(=O)[C@H](CC(C)C)NC(=O)[C@H](CCCNC(=N)N)NC(=O)[C@H](CCC(N)=O)NC(=O)[C@H](CC(C)C)NC(=O)[C@H](CCCNC(=N)N)NC(=O)[C@H](C)NC(=O)[C@H](CO)NC(=O)[C@H](CC(=O)O)NC(=O)[C@H](CCC(N)=O)NC(=O)[C@H](CC(C)C)NC(=O)[C@H](CCCNC(=N)N)NC(=O)[C@H](CO)NC(=O)[C@H](Cc1ccc(O)cc1)NC(=O)[C@H](CCC(=O)O)NC(=O)[C@H](CO)NC(=O)[C@@H](NC(=O)[C@H](Cc1ccccc1)NC(=O)[C@@H]1CSSC[C@H](NC(=O)[C@H](CO)NC(=O)[C@@H](N)Cc2cnc[nH]2)C(=O)NCC(=O)N1)[C@@H](C)O)C(=O)N[C@H](C(N)=O)C(C)C (H-HSCGCFTSEYSRLQDSARLQRLLQGLV-NH2; disulfide 3-5)
2 | Active | Active | CC(C)C[C@H](NC(=O)CNC(=O)[C@H](CCC(N)=O)NC(=O)[C@H](CC(C)C)NC(=O)[C@H](CC(C)C)NC(=O)[C@H](CCCNC(=N)N)NC(=O)[C@H](CCC(N)=O)NC(=O)[C@H](CC(C)C)NC(=O)[C@H](CCCNC(=N)N)NC(=O)[C@H](C)NC(=O)[C@H](CO)NC(=O)[C@H](CC(=O)O)NC(=O)[C@H](CCC(N)=O)NC(=O)[C@H](CC(C)C)NC(=O)[C@H](CCCNC(=N)N)NC(=O)[C@H](CO)NC(=O)[C@H](Cc1ccc(O)cc1)NC(=O)[C@H](CCC(=O)O)NC(=O)[C@H](CO)NC(=O)[C@@H]1CSSC[C@H](NC(=O)[C@H](CC(=O)O)NC(=O)[C@H](CO)NC(=O)[C@@H](N)Cc2cnc[nH]2)C(=O)N[C@@H]([C@@H](C)O)C(=O)N[C@@H](Cc2ccccc2)C(=O)N1)C(=O)N[C@H](C(N)=O)C(C)C (H-HSDCTFCSEYSRLQDSARLQRLLQGLV-NH2; disulfide 4-7)
3 | Active | – | CC(C)C[C@H](NC(=O)CNC(=O)[C@H](CCC(N)=O)NC(=O)[C@H](CC(C)C)NC(=O)[C@H](CC(C)C)NC(=O)[C@H](CCCNC(=N)N)NC(=O)[C@H](CCC(N)=O)NC(=O)[C@H](CC(C)C)NC(=O)[C@H](CCCNC(=N)N)NC(=O)[C@H](C)NC(=O)[C@H](CO)NC(=O)[C@H](CC(=O)O)NC(=O)[C@H](CCC(N)=O)NC(=O)[C@H](CC(C)C)NC(=O)[C@H](CCCNC(=N)N)NC(=O)[C@H](CO)NC(=O)[C@H](Cc1ccc(O)cc1)NC(=O)[C@@H]1CSSC[C@H](NC(=O)[C@H](Cc2ccccc2)NC(=O)[C@@H](NC(=O)CNC(=O)[C@H](CC(=O)O)NC(=O)[C@H](CO)NC(=O)[C@@H](N)Cc2cnc[nH]2)[C@@H](C)O)C(=O)N[C@@H](CO)C(=O)N1)C(=O)N[C@H](C(N)=O)C(C)C (H-HSDGTFCSCYSRLQDSARLQRLLQGLV-NH2; disulfide 7-9)
